Test results: article PMC12376232 (Journal of the Colleges of Medicine of South Africa, 2023)

Columns and labels:
rodents = conditions: in vivo
benign thyroid diseases = experiment: I-131 therapy of benign thyroid diseases, retrospective analysis; type: in vivo; conditions: 127 patients
Protocol: A retrospective analysis was carried out for patients with benign thyroid conditions who underwent single or double I-131 therapy for benign thyroid disease at our department between January 2009 and December 2021. The thyroid function status of the patients was also documented prior to discharge.

For `CCCC(C)C1(CC)C(=O)NC(=O)NC1=O` (stereo not drawn) [Pentobarbital, pentobarbital], the “effect on glucose metabolism” value (rodents) was “does not alter the blood glucose metabolism” and the “safety margin for rodent anaesthesia” value (rodents) was “lower safety margin”.

In the case of `CC(C)c1cccc(C(C)C)c1O` [Propofol, propofol], the “effect on glucose metabolism” value (rodents) is reported as “decreased cerebral glucose metabolism”.

In the case of `[131IH]` [RAI], the “patients who required retreatment as they remained hyperthyroid” value (benign thyroid diseases; after single RAI therapy, n = 33) is reported as 26%, the “patients who responded to the single RAI therapy (euthyroid or hypothyroid)” value (benign thyroid diseases; empirical dose 10 mCi to 40 mCi, n = 94) is reported as “Seventy-four per cent” and the “patients euthyroid on discharge” value (benign thyroid diseases; single or double I-131 therapy, n = 40) is reported as 31%. For the same molecule, the “patients hypothyroid on discharge” value (benign thyroid diseases; single or double I-131 therapy, n = 83) was 66%.

With `FC(F)OC(Cl)C(F)(F)F` (stereo not drawn) [isoflurane] the “effect on glucose metabolism” value (rodents) was “induced hypoglycaemia”.

In the case of `FCOC(C(F)(F)F)C(F)(F)F` [sevoflurane], the “effect on glucose metabolism” value (rodents) is reported as “induced hypoglycaemia”.
